These results are taken from patent US9980943B2, “Methods of treating muscular dystrophy” (BOARD OF REGENTS OF THE NEVADA SYSTEM OF HIGHER EDUCATION, …, priority 2013, dated 2018).

Assay type in all cases: cell-based, mouse
Assay [1] deals with α7 integrin (LacZ reporter in α7βgal+/− myoblasts). The assay is described as follows: Myoblast α7+/LacZ integrin FDG assay (Burkin assay in myoblasts, 96-well). To be noted: 96-well; for Burkin Assay in Myoblasts, signal relative to DMSO: α7+/LacZ myoblasts; for Burkin Assay in Myoblasts, value relative to DMSO: SU9516 analogs, N=3-6.
Assay [2] has as its system α7 integrin (LacZ reporter in α7+/LacZ myotubes). The assay is described as follows: Myotube α7 integrin FDG assay (Burkin assay in myotubes, 96-well). Particulars: for Burkin Assay in Myotubes, value relative to DMSO: SU9516 analogs, 96-well, N=3-6.
Assay [3] has as its system β-galactosidase in CMV-LacZ C2C12 myoblasts. The assay is described as follows: CMV-LacZ secondary screen in C2C12 myoblasts (β-Gal stabilizing assay). Particulars: for CMV-LACZ in Myoblasts (β-galactosidase activity relative to DMSO): CMV-LacZ C2C12 myoblasts; for CMV-LACZ in Myoblasts, value relative to DMSO: SU9516 analogs, C2C12 CMV-LacZ, N=2. Summed up: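 Stable CMV-LacZ C2C12 clone; six-point curve 0.5–40 μM; duplicates.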

Assay [4] relates to β-galactosidase in CMV-LacZ C2C12 myotubes. Description: CMV-LacZ secondary screen in C2C12 myotubes (β-Gal stabilizing assay). To be noted: for CMV-LACZ in Myotubes, signal relative to DMSO: C2C12 CMV-LacZ myotubes, fold relative to DMSO; for CMV-LACZ in Myotubes, value relative to DMSO: SU9516 analogs, C2C12 CMV-LacZ, N=2. Summed up:
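A secondary screen identifies compounds that stabilize β-gal independently of the native promoter, using CMV-LacZ C2C12 cells. Curves span 0.5–40 μM at six levels, in duplicate.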

As to `CCOc1ccc2nc(Cl)sc2c1` [MLS000678673-01], the “Burkin Assay in Myoblasts, signal relative to DMSO” value is recorded as 0.9325 in assay [1] (0.5 uM); 1.054 in assay [1] (1 uM); 1.044 in assay [1] (5 uM); 0.9687 in assay [1] (10 uM); 1.173 in assay [1] (20 uM); 1.134 in assay [1] (40 uM). The “Burkin Assay in Myotubes, α7 integrin LacZ reporter signal relative to DMSO” value in assay [2] (0.5 uM) is given as 0.9772; in assay [2] (1 uM), 0.9802; in assay [2] (5 uM) it was 0.9767; in assay [2] (10 uM) it was 0.9606; in assay [2] (20 uM), 0.8655; in assay [2] (40 uM), 0.781. Also, the “CMV-LACZ in Myoblasts (β-galactosidase activity relative to DMSO)” value in assay [3] (0.5 uM) amounted to 1.2106; in assay [3] (1 uM), 1.1914; in assay [3] (5 uM), 1.0561; in assay [3] (10 uM) it was 0.8991; in assay [3] (20 uM), 0.8674; in assay [3] (40 uM), 0.9656. Also, the “CMV-LACZ in Myotubes, signal relative to DMSO” value in assay [4] (0.5 uM) was found to be 1.1229; in assay [4] (1 uM) it was 1.0286; in assay [4] (5 uM) it was 0.7918; in assay [4] (10 uM) it was 0.9367; in assay [4] (20 uM), 0.9635; in assay [4] (40 uM) it was 1.1835.

Consider `Cc1[nH]c(/C=C2\C(=O)Nc3ccc(S(=O)(=O)Cc4c(Cl)cccc4Cl)cc32)c(C)c1C(=O)C1CCCN1CN1CCCC1` (stereo not drawn) [NCGC00242500-01], for which the “Burkin Assay in Myoblasts, value relative to DMSO” value in assay [1] (0.5 uM) was determined as 1.052; in assay [1] (1 uM), 1.076; in assay [1] (5 uM), 0.8704; in assay [1] (10 uM), 0.5879; in assay [1] (20 uM) it was 0.01841; in assay [1] (40 uM), 0.01945. The “Burkin Assay in Myotubes, value relative to DMSO” value in assay [2] (0.5 uM) is reported as 0.9974; in assay [2] (1 uM) it was 0.9391; in assay [2] (5 uM), 0.9422; in assay [2] (10 uM) it was 0.7534; in assay [2] (20 uM) it was 0.652; in assay [2] (40 uM) it was 0.2132. Also, the “CMV-LACZ in Myoblasts, value relative to DMSO” value is recorded as 1.1021 in assay [3] (0.5 uM); 1.1446 in assay [3] (1 uM); 1.6977 in assay [3] (5 uM); 2.4909 in assay [3] (10 uM); 0.3570 in assay [3] (20 uM); 0.4237 in assay [3] (40 uM). Further, the “CMV-LACZ in Myotubes, value relative to DMSO” value in assay [4] (0.5 uM) is recorded as 1.2482; in assay [4] (1 uM) it was 1.9682; in assay [4] (5 uM), 2.2432; in assay [4] (10 uM), 3.3039; in assay [4] (20 uM) it was 5.2430; in assay [4] (40 uM), 7.0800.
